Assay type in all cases: functional
In experiment [1] the test system is Enterococcus faecalis. In words: Minimum inhibitory concentration against Enterococcus faecalis (VanA, BM4166).
The test system of experiment [2] is Enterococcus faecalis. Kind of experiment: Minimum inhibitory concentration against Enterococcus faecalis (VanB, ATCC 51299).
A further experiment relates to Staphylococcus aureus. In words: Minimum inhibitory concentration against Staphylococcus aureus (ATCC 25923).

Our source for the MIC values is ChEMBL document CHEMBL1136190, “Synthesis and evaluation of methyl ether derivatives of the vancomycin, teicoplanin, and ristocetin aglycon methyl esters” (2003).

Each structure is given as a SMILES string. Converted amounts (≈) assume the structure as drawn.

Regarding `CN[C@H](CC(C)C)C(=O)NC1C(=O)NC(CC(N)=O)C(=O)NC2C(=O)NC3C(=O)NC(C(=O)NC(C(=O)OC)c4cc(OC)cc(OC)c4-c4cc3ccc4OC)C(O)c3ccc(c(Cl)c3)Oc3cc2cc(c3OC)Oc2ccc(cc2Cl)[C@H]1O` (stereo partly specified), the MIC (commonly the smallest concentration in the dilution series that meets the test's criterion for growth inhibition) against Enterococcus faecalis [1] was determined as 50 µg/mL (≈ 41.2 µM); against Enterococcus faecalis [2] it was 1.6 µg/mL (≈ 1.32 µM); against Staphylococcus aureus it was 1.6 µg/mL (≈ 1.32 µM).
Take `COC(=O)[C@H]1NC(=O)[C@H]2NC(=O)[C@H](NC(=O)[C@@H]3NC(=O)[C@H]4NC(=O)[C@H](NC(=O)[C@H](N)c5ccc(O)c(c5)Oc5cc4cc(O)c5C)[C@H](O)c4ccc(cc4)Oc4cc3cc(c4O)Oc3ccc(cc3)[C@H]2O)c2ccc(O)c(c2)-c2c(O)cc(O)cc21`: the MIC is above 100 µg/mL in the experiment with Enterococcus faecalis [1], 25 µg/mL (≈ 21.3 µM) with Enterococcus faecalis [2] and 0.8 µg/mL (≈ 0.681 µM) against Staphylococcus aureus.
Turning to `CN[C@H](CC(C)C)C(=O)NC1C(=O)NC(CC#N)C(=O)NC2C(=O)NC3C(=O)NC(C(=O)NC(C(=O)OC)c4cc(OC)cc(OC)c4-c4cc3ccc4OC)C(O)c3ccc(c(Cl)c3)Oc3cc2cc(c3OC)Oc2ccc(cc2Cl)[C@H]1O` (stereo partly specified), the MIC was found to be 50 µg/mL (≈ 41.8 µM) in the experiment on Enterococcus faecalis [1], 1.6 µg/mL (≈ 1.34 µM) against Enterococcus faecalis [2] and 1.6 µg/mL (≈ 1.34 µM) against Staphylococcus aureus.
Take `COC(=O)C1NC(=O)C2NC(=O)C(NC(=O)C3NC(=O)C4NC(=O)[C@H](NC(=O)[C@H](N)c5ccc(O)c(c5)Oc5cc4cc(O)c5C)[C@H](O)c4ccc(cc4)Oc4cc3cc(c4OC)Oc3ccc(cc3)C2O)c2ccc(O)c(c2)-c2c(OC)cc(O)cc21` (stereo partly specified): the results for the MIC against Enterococcus faecalis [1], in the experiment with Enterococcus faecalis [2] and against Staphylococcus aureus were above 100 µg/mL, 3.2 µg/mL (≈ 2.66 µM) and 3.2 µg/mL (≈ 2.66 µM), respectively.
For `Cc1c(O)cc2cc1Oc1cc(ccc1O)[C@@H](N)C(=O)N[C@H]1C(=O)N[C@@H]2C(=O)N[C@H]2C(=O)N[C@H]3C(=O)N[C@H](C(=O)N[C@@H](C(=O)O)c4cc(O)cc(O[C@H]5O[C@H](CO)[C@@H](O)[C@H](O)[C@@H]5O)c4-c4cc3ccc4O)[C@H](O[C@H]3C[C@@H](N)[C@@H](O)[C@H](C)O3)c3ccc(cc3)Oc3cc2cc(c3O[C@H]2O[C@@H](CO[C@H]3O[C@H](C)[C@@H](O)[C@H](O)[C@@H]3O)[C@H](O)[C@@H](O)[C@@H]2O[C@H]2O[C@H](CO)[C@@H](O)[C@H](O)[C@@H]2O[C@H]2O[C@H](CO)[C@@H](O)[C@@H]2O)Oc2ccc(cc2)[C@H]1O` [RISTOCETIN], the MIC against Enterococcus faecalis [1] was above 100 µg/mL; against Enterococcus faecalis [2] it was 12.5 µg/mL (≈ 6.09 µM); with Staphylococcus aureus, 1.6 µg/mL (≈ 0.779 µM).
On to `CN[C@H](CC(C)C)C(=O)N[C@H]1C(=O)N[C@@H](CC(N)=O)C(=O)N[C@H]2C(=O)N[C@H]3C(=O)N[C@H](C(=O)N[C@H](C(=O)O)c4cc(O)cc(O)c4-c4cc3ccc4O)[C@H](O)c3ccc(c(Cl)c3)Oc3cc2cc(c3O)Oc2ccc(cc2Cl)[C@H]1O` [VANCOMYCIN AGLYCON], for which the MIC is above 100 µg/mL in the experiment on Enterococcus faecalis [1], 25 µg/mL (≈ 21.9 µM) against Enterococcus faecalis [2] and 0.8 µg/mL (≈ 0.699 µM) against Staphylococcus aureus.
The like results for `CN[C@H](CC(C)C)C(=O)N[C@H]1C(=O)N[C@@H](CC(N)=O)C(=O)N[C@H]2C(=O)N[C@H]3C(=O)N[C@H](C(=O)N[C@H](C(=O)O)c4cc(O)cc(O)c4-c4cc3ccc4O)[C@H](O)c3ccc(c(Cl)c3)Oc3cc2cc(c3O[C@@H]2O[C@H](CO)[C@@H](O)[C@H](O)[C@H]2O[C@H]2C[C@](C)(N)[C@H](O)[C@H](C)O2)Oc2ccc(cc2Cl)[C@H]1O` [VANCOMYCIN] were, in that order, above 100 µg/mL, 25 µg/mL (≈ 17.3 µM) and 0.8 µg/mL (≈ 0.552 µM).
